We go through 29 molecules from ChEMBL document CHEMBL1129070, “(-)-Arctigenin as a lead structure for inhibitors of human immunodeficiency virus type-1 integrase” (J Med Chem, 1996).

SMILES strings stand for the structures.

T1 sequence (Q7ZJM1 whole entry): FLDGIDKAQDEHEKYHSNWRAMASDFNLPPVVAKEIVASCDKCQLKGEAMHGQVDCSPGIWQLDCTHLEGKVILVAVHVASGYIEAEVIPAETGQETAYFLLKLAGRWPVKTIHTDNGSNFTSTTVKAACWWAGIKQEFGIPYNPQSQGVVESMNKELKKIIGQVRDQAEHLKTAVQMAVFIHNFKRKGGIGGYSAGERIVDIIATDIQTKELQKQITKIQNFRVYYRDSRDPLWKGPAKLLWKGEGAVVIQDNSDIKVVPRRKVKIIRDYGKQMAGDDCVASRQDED

The first assay addresses T1, Human immunodeficiency virus type 1 integrase (Human immunodeficiency virus 1, UniProt Q7ZJM1). In words: Inhibitory concentration against 3'-processing by HIV -1 Integrase.
The term IC50 denotes the concentration that gives 50% inhibition. Read a high IC50 as a need for much substance. In turn, `O=C1OC[C@H](Cc2ccc(O)c(O)c2)[C@H]1Cc1ccc(O)c(O)c1` yielded a 50% inhibitory concentration (IC50) of 21.4 µM.

Another assay deals with T1, Human immunodeficiency virus type 1 integrase. The experiment in a line: Inhibitory concentration against Strand transfer by HIV -1 Integrase.
The molecule `O=C1OC[C@H](Cc2ccc(O)c(O)c2)[C@H]1Cc1ccc(O)c(O)c1` yielded a half-inhibitory concentration (IC50) of 5.4 µM.

The target in a further assay is Human immunodeficiency virus type 1 integrase (Human immunodeficiency virus 1) (UniProt Q7ZJM1). The experiment in a line: Inhibitory activity against strand transfer by HIV-1 Integrase at 100 uM.
Chain of Human immunodeficiency virus type 1 integrase (Human immunodeficiency virus 1) (Q7ZJM1 as listed by the source): as the sequence (Q7ZJM1 whole entry) above
What is called inhibition is the drop in the measured response relative to a control, in per cent. Low values mean a response near the control, high ones a response far below the control. In turn, `O=C1OC[C@H](Cc2ccc3c(c2)OCO3)[C@H]1Cc1cccc(O)c1` had an inhibition of less than 5%.
For `COc1ccc(C[C@@H](CO)[C@@H](Cc2ccc(O)c(O)c2)C(=O)NCc2ccccc2)cc1OC`, the inhibition is less than 5%.
The same measure, in the same setting: next, `COc1ccc(C[C@@H](CO)[C@H](CO)Cc2ccc(O)c(O)c2)cc1OC`: less than 5%; `COc1ccc(C[C@H]2COC(=O)[C@@H]2Cc2ccc(O)cc2)cc1OC`: less than 5%.
For `O=C1OC[C@H](Cc2ccc3c(c2)OCO3)[C@H]1Cc1ccc(O)cc1`, the inhibition is less than 5%.
The same measure, in the same setting: next, `COc1cc(C[C@H]2COC(=O)[C@@H]2Cc2ccc(O)c(OC)c2)ccc1O`: less than 5%; `COc1ccc(C[C@H]2CCC(=O)[C@@H]2Cc2ccc(O)c(O)c2)cc1OC`: less than 5%.
On the same count and under the same terms, next, `COc1cc(C[C@H]2C(=O)OC[C@@H]2Cc2ccc(O)c(O)c2)ccc1O`: 41%; `COc1cc(C[C@H]2COC[C@@H]2Cc2ccc(OC)c(OC)c2)ccc1O`: less than 5%; `COc1ccc(C[C@H]2COC[C@@H]2Cc2ccc(O)c(O)c2)cc1OC`: less than 5%.
On the same count and under the same terms, next, `COc1cc(C[C@@H](C(=O)NCc2ccccc2)[C@H](CO)Cc2ccc(OC)c(OC)c2)ccc1O`: less than 5%; `COc1cc(C[C@@H](CO)[C@H](CO)Cc2ccc(O)c(OC)c2)ccc1O`: less than 5%; `COc1cc(C[C@@H](CO)[C@H](CO)Cc2ccc(OC)c(OC)c2)ccc1O`: less than 5%.
The molecule `O=C1OC[C@H](Cc2ccc(O)c(O)c2)[C@H]1Cc1ccc(O)c(O)c1` came in with an inhibition of 100%.
Still for that read-out and setting: next, `COc1cc([C@@H]2c3cc4c(cc3C(O)[C@H]3COC(=O)[C@H]23)OCO4)cc(O)c1O` (stereo not given in full): less than 5%; `COc1cc([C@@H]2c3cc4c(c(O)c3C[C@H]3COC(=O)[C@H]32)OCO4)cc(OC)c1OC`: less than 5%.
The molecule `COc1cc([C@@H]2c3cc4c(c(O)c3C[C@H]3COC(=O)[C@@H]32)OCO4)cc(OC)c1OC` had an inhibition of less than 5%.
Take `COc1ccc(C[C@H]2COC(=O)[C@@H]2Cc2ccccc2)cc1OC`: the inhibition is less than 5%.
Consider `COc1ccc(C[C@H]2COC(=O)[C@@H]2Cc2cc(O)c(O)c(O)c2)cc1OC`, for which the inhibition is less than 5%.
On the same count and under the same terms, next, `COc1cc(C[C@H]2COC[C@@H]2Cc2ccc(O)c(OC)c2)ccc1O`: less than 5%.
Still for that read-out and setting: next, `COc1ccc(C[C@H]2COC(=O)[C@@H]2Cc2ccc(O)c(O)c2)cc1OC`: 52%; `COc1cc(C[C@H]2C(=O)OC[C@@H]2Cc2ccc(OC)c(OC)c2)ccc1O`: less than 5%.
Still for that read-out and setting: next, `COc1cc([C@@H]2c3cc4c(cc3[C@H](O)[C@H]3COC(=O)[C@H]23)OCO4)cc(OC)c1O`: less than 5%; `COc1cc([C@@H]2c3cc4c(c(O)c3C[C@H]3COC(=O)[C@H]32)OCO4)cc(OC)c1O`: less than 5%.
Regarding `COc1ccc(C[C@H]2COC(=O)[C@@H]2Cc2cccc(O)c2)cc1OC`, the inhibition is less than 5%.
In turn, `COc1cc([C@@H]2c3cc4c(c(O)c3C[C@H]3COC(=O)[C@@H]32)OCO4)cc(OC)c1O` displayed an inhibition of less than 5%.
The molecule `COc1cc(C[C@H]2C(=O)CC[C@@H]2Cc2ccc(OC)c(OC)c2)ccc1O` yielded an inhibition of less than 5%.
The same measure, in the same setting: next, `O=C1OC[C@H](Cc2ccc3c(c2)OCO3)[C@H]1Cc1ccccc1`: less than 5%.
Still for that read-out and setting: next, `COc1cc([C@@H]2c3cc4c(cc3[C@H](O)[C@H]3COC(=O)[C@@H]23)OCO4)cc(OC)c1O`: less than 5%.

The target is the same in the next assay. In words: Inhibitory activity against 3'-processing by HIV-1 Integrase at 100 uM.
Consider `O=C1OC[C@H](Cc2ccc3c(c2)OCO3)[C@H]1Cc1cccc(O)c1`, for which the inhibition was less than 5%.
In the case of `COc1ccc(C[C@@H](CO)[C@@H](Cc2ccc(O)c(O)c2)C(=O)NCc2ccccc2)cc1OC`, the inhibition is less than 5%.
Consider `COc1ccc(C[C@@H](CO)[C@H](CO)Cc2ccc(O)c(O)c2)cc1OC`, for which the inhibition was less than 5%.
In turn, `COc1ccc(C[C@H]2COC(=O)[C@@H]2Cc2ccc(O)cc2)cc1OC` showed an inhibition of less than 5%.
Same read-out and setting: next, `O=C1OC[C@H](Cc2ccc3c(c2)OCO3)[C@H]1Cc1ccc(O)cc1`: less than 5%; `COc1cc(C[C@H]2COC(=O)[C@@H]2Cc2ccc(O)c(OC)c2)ccc1O`: less than 5%; `COc1ccc(C[C@H]2CCC(=O)[C@@H]2Cc2ccc(O)c(O)c2)cc1OC`: less than 5%.
Still for that read-out and setting: next, `COc1cc(C[C@H]2C(=O)OC[C@@H]2Cc2ccc(O)c(O)c2)ccc1O`: less than 5%; `COc1cc(C[C@H]2COC[C@@H]2Cc2ccc(OC)c(OC)c2)ccc1O`: less than 5%.
`COc1ccc(C[C@H]2COC[C@@H]2Cc2ccc(O)c(O)c2)cc1OC` yielded an inhibition of less than 5%.
Still for that read-out and setting: next, `COc1cc(C[C@@H](C(=O)NCc2ccccc2)[C@H](CO)Cc2ccc(OC)c(OC)c2)ccc1O`: less than 5%; `COc1cc(C[C@@H](CO)[C@H](CO)Cc2ccc(O)c(OC)c2)ccc1O`: less than 5%; `COc1cc(C[C@@H](CO)[C@H](CO)Cc2ccc(OC)c(OC)c2)ccc1O`: less than 5%.
`O=C1OC[C@H](Cc2ccc(O)c(O)c2)[C@H]1Cc1ccc(O)c(O)c1` returned an inhibition of 92%.
The same measure, in the same setting: next, `COc1cc([C@@H]2c3cc4c(cc3C(O)[C@H]3COC(=O)[C@H]23)OCO4)cc(O)c1O` (stereo not given in full): less than 5%.
Still for that read-out and setting: next, `COc1cc([C@@H]2c3cc4c(c(O)c3C[C@H]3COC(=O)[C@H]32)OCO4)cc(OC)c1OC`: less than 5%.
The same measure, in the same setting: next, `COc1cc([C@@H]2c3cc4c(c(O)c3C[C@H]3COC(=O)[C@@H]32)OCO4)cc(OC)c1OC`: less than 5%; `COc1ccc(C[C@H]2COC(=O)[C@@H]2Cc2ccccc2)cc1OC`: less than 5%; `COc1ccc(C[C@H]2COC(=O)[C@@H]2Cc2cc(O)c(O)c(O)c2)cc1OC`: less than 5%.
As to `COc1cc(C[C@H]2COC[C@@H]2Cc2ccc(O)c(OC)c2)ccc1O`, the inhibition was less than 5%.
For `COc1ccc(C[C@H]2COC(=O)[C@@H]2Cc2ccc(O)c(O)c2)cc1OC`, the inhibition came to 37%.
Still for that read-out and setting: next, `COc1cc(C[C@H]2C(=O)OC[C@@H]2Cc2ccc(OC)c(OC)c2)ccc1O`: less than 5%; `COc1cc([C@@H]2c3cc4c(cc3[C@H](O)[C@H]3COC(=O)[C@H]23)OCO4)cc(OC)c1O`: less than 5%; `COc1cc([C@@H]2c3cc4c(c(O)c3C[C@H]3COC(=O)[C@H]32)OCO4)cc(OC)c1O`: less than 5%.
The molecule `COc1ccc(C[C@H]2COC(=O)[C@@H]2Cc2cccc(O)c2)cc1OC` had an inhibition of less than 5%.
The same measure, in the same setting: next, `COc1cc([C@@H]2c3cc4c(c(O)c3C[C@H]3COC(=O)[C@@H]32)OCO4)cc(OC)c1O`: less than 5%.
On the same count and under the same terms, next, `COc1cc(C[C@H]2C(=O)CC[C@@H]2Cc2ccc(OC)c(OC)c2)ccc1O`: less than 5%; `O=C1OC[C@H](Cc2ccc3c(c2)OCO3)[C@H]1Cc1ccccc1`: less than 5%; `COc1cc([C@@H]2c3cc4c(cc3[C@H](O)[C@H]3COC(=O)[C@@H]23)OCO4)cc(OC)c1O`: less than 5%.
